Measurements as given in ChEMBL document CHEMBL1201862, “PubChem BioAssay data set” (2004).
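Dose response: 5 concentrations. Exposure: 48 h. Format: 96-well plates. Endpoint: linear interpolation; highest concentration if not reached. GI50 is the concentration that inhibits growth by half.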 Calls of active or inactive are those of the source. Rule as the data show it: active = GI50 up to about 1.1 µM and inactive = higher.

What was measured:
Test in all cases: NCI tumour cell line growth inhibition, 48 h
HCT-116 = test system: HCT-116
Malme-3M = test system: Malme-3M
M14 = test system: M14
A498 = test system: A498
SW-620 = test system: SW-620
PC-3 = test system: PC-3
SK-MEL-2 = test system: SK-MEL-2
KM12 = test system: KM12
IGROV-1 = test system: IGROV-1
SNB-19 = test system: SNB-19
NCI-H23 = test system: NCI-H23
MOLT-4 = test system: MOLT-4
LOX IMVI = test system: LOX IMVI
RXF 393 = test system: RXF 393
ACHN = test system: ACHN
SN12C = test system: SN12C
COLO 205 = test system: COLO 205
SF-539 = test system: SF-539
DU-145 = test system: DU-145

Measured: GI50

c1ccc2c(c1)nnn2CN1CCOCC1
inactive: HCT-116 > 100 µM | Malme-3M 41.8 µM | M14 > 100 µM | A498 > 100 µM | SW-620 28.3 µM | PC-3 > 100 µM | SK-MEL-2 > 100 µM | KM12 > 100 µM | IGROV-1 94.4 µM | SNB-19 > 100 µM | NCI-H23 > 100 µM | MOLT-4 35.6 µM | LOX IMVI 36.6 µM | RXF 393 48.5 µM | ACHN > 100 µM | SN12C 39.8 µM

CC(=O)OC1COC(n2c(=S)n(-c3ccc(C)cc3)c(=O)c3ccccc32)C(OC(C)=O)C1OC(C)=O (configuration not stated)
inactive: HCT-116 > 100 µM | Malme-3M > 100 µM | M14 > 100 µM | A498 > 100 µM | SW-620 > 100 µM | SK-MEL-2 > 100 µM | KM12 > 100 µM | IGROV-1 > 100 µM | COLO 205 > 100 µM | SF-539 > 100 µM | SNB-19 > 100 µM | NCI-H23 > 100 µM | MOLT-4 > 100 µM | LOX IMVI > 100 µM | RXF 393 67.3 µM | ACHN > 100 µM | SN12C > 100 µM

Cc1[nH]c2ccccc2c1C1Cc2ccccc2N1C(=O)/C(Cl)=C/c1ccccc1 (configuration not stated)
inactive: HCT-116 36.5 µM | Malme-3M > 86.3 µM | M14 > 100 µM | A498 > 78.2 µM | SW-620 > 100 µM | SK-MEL-2 > 91 µM | KM12 > 100 µM | IGROV-1 61.1 µM | COLO 205 > 100 µM | SF-539 40.9 µM | SNB-19 > 100 µM | NCI-H23 48.4 µM | MOLT-4 15.2 µM | LOX IMVI > 100 µM | RXF 393 7.83 µM | ACHN 98.9 µM | SN12C > 100 µM

CCC1CCCCN1CC(C(C)=O)C(c1ccccc1)c1c(O)c2ccccc2oc1=O (configuration not stated)
inactive: HCT-116 > 100 µM | Malme-3M > 100 µM | M14 > 100 µM | A498 > 100 µM | SW-620 > 100 µM | SK-MEL-2 > 100 µM | KM12 > 100 µM | IGROV-1 > 100 µM | COLO 205 76.6 µM | SF-539 > 100 µM | SNB-19 > 100 µM | NCI-H23 > 100 µM | MOLT-4 > 100 µM | LOX IMVI > 100 µM | RXF 393 > 100 µM | ACHN > 100 µM | SN12C > 100 µM

COc1cc(/C=C2/C(=O)N(C(=O)OCC(C)C)C(Cc3cc(OC)c(OC)c(C)c3OC)C(=O)N2Cc2ccccc2)c(OC)c(C)c1OC (configuration not stated)
inactive: HCT-116 20.2 µM | Malme-3M > 100 µM | M14 69.3 µM | A498 > 100 µM | SW-620 > 100 µM | SK-MEL-2 94.6 µM | KM12 > 100 µM | IGROV-1 > 100 µM | COLO 205 11.2 µM | SF-539 > 100 µM | SNB-19 > 100 µM | NCI-H23 > 100 µM | MOLT-4 7.35 µM | LOX IMVI > 100 µM | RXF 393 > 100 µM | ACHN > 100 µM | SN12C > 100 µM

S=C1ON=C(c2ccccc2)/C1=C/Nc1ccccc1
inactive: Malme-3M 77.1 µM | M14 > 100 µM | A498 5.69 µM | SW-620 > 100 µM | SK-MEL-2 > 100 µM | KM12 23.2 µM | IGROV-1 > 100 µM | COLO 205 > 100 µM | SF-539 97.7 µM | SNB-19 > 100 µM | NCI-H23 > 100 µM | MOLT-4 > 100 µM | LOX IMVI > 100 µM | RXF 393 94.8 µM | ACHN 47.1 µM | SN12C > 100 µM

CNC(C)(C)Cc1ccc(Cl)cc1
inactive: HCT-116 > 100 µM | Malme-3M > 100 µM | M14 > 100 µM | A498 > 100 µM | SW-620 > 100 µM | SK-MEL-2 > 100 µM | KM12 > 100 µM | IGROV-1 > 100 µM | COLO 205 > 100 µM | SF-539 > 100 µM | NCI-H23 > 100 µM | MOLT-4 > 100 µM | LOX IMVI > 100 µM | RXF 393 > 100 µM | ACHN > 100 µM | SN12C > 100 µM

CSc1nc2c(nc(N)n2C2OC(COC(C)=O)C(OC(C)=O)C(OC(C)=O)C2OC(C)=O)c(=O)n1C (configuration not stated)
inactive: HCT-116 > 100 µM | Malme-3M > 100 µM | M14 > 100 µM | A498 > 100 µM | SW-620 > 100 µM | SK-MEL-2 > 100 µM | KM12 > 100 µM | IGROV-1 > 100 µM | COLO 205 > 100 µM | SF-539 > 100 µM | SNB-19 > 100 µM | NCI-H23 > 100 µM | MOLT-4 > 100 µM | LOX IMVI > 100 µM | RXF 393 > 100 µM | ACHN > 100 µM | SN12C > 100 µM

CC(C)(C)NCC(COc1ccc([N+](=O)[O-])cc1)OP(c1ccccc1)c1ccccc1 (configuration not stated)
inactive: HCT-116 33 µM | Malme-3M 25 µM | M14 26.8 µM | A498 44.7 µM | SW-620 47.4 µM | SK-MEL-2 35.4 µM | KM12 29.9 µM | IGROV-1 53.3 µM | COLO 205 31.4 µM | SF-539 53.1 µM | SNB-19 38.7 µM | NCI-H23 44.9 µM | MOLT-4 18.9 µM | LOX IMVI 11 µM | RXF 393 30.3 µM | ACHN 38.7 µM | SN12C 36.6 µM

CN(C)CC1(C)CC/C(=C\c2ccc3c(c2)OCO3)C1=O (configuration not stated)
inactive: HCT-116 > 100 µM | Malme-3M > 100 µM | M14 > 100 µM | A498 > 100 µM | SW-620 92.9 µM | SK-MEL-2 > 100 µM | KM12 > 100 µM | IGROV-1 > 100 µM | COLO 205 > 100 µM | SF-539 > 100 µM | SNB-19 > 100 µM | NCI-H23 > 100 µM | MOLT-4 96.4 µM | LOX IMVI > 100 µM | RXF 393 > 100 µM | ACHN > 100 µM | SN12C > 100 µM

O=C(c1cccnc1)N1N=C(c2ccc3c(c2)OCO3)CC1(O)c1cc(F)c(Cl)cc1Cl (configuration not stated)
inactive: HCT-116 16.3 µM | Malme-3M 23.4 µM | M14 31.8 µM | DU-145 20.9 µM | SW-620 23.8 µM | PC-3 21.5 µM | SK-MEL-2 20.7 µM | KM12 26.9 µM | IGROV-1 11.4 µM | COLO 205 15.1 µM | SF-539 16.7 µM | SNB-19 32.6 µM | NCI-H23 24.9 µM | MOLT-4 15.3 µM | LOX IMVI 16.4 µM | RXF 393 12.7 µM | ACHN 17.7 µM | SN12C 18.5 µM

NC(N)=NN/C(=C1/N=c2ccc([N+](=O)[O-])cc2=NC1=O)C(O)c1ccco1 (configuration not stated)
inactive: HCT-116 > 100 µM | Malme-3M > 100 µM | M14 > 100 µM | A498 > 100 µM | SW-620 > 100 µM | SK-MEL-2 > 100 µM | KM12 > 100 µM | IGROV-1 > 100 µM | COLO 205 > 100 µM | SF-539 > 100 µM | SNB-19 > 100 µM | NCI-H23 > 100 µM | MOLT-4 > 100 µM | LOX IMVI > 100 µM | RXF 393 > 100 µM | ACHN > 100 µM | SN12C > 100 µM
